Results on 1 compound are retold here after article PMC7226045, “Ensartinib (X-396) Effectively Modulates Pharmacokinetic Resistance Mediated by ABCB1 and ABCG2 Drug Efflux Transporters and CYP3A4 Biotransformation Enzyme” (Cancers, 2020).

One series relates to HL60-parent cells. The series is described as follows: XTT proliferation / drug combination assay, HL60-parent. Format: cell-based, human. In general terms: Tetrazolium dyes change colour on reduction, which living cells bring about.
For the next series, the target named is T1, ABCB1 (Homo sapiens, UniProt P08183).
T1 construct: expressed in transfected cells; host or cells: MDCKII-ABCB1 (from Dr. Alfred Schinkel, The Netherlands Cancer Institute)
T1 sequence (P08183 whole entry): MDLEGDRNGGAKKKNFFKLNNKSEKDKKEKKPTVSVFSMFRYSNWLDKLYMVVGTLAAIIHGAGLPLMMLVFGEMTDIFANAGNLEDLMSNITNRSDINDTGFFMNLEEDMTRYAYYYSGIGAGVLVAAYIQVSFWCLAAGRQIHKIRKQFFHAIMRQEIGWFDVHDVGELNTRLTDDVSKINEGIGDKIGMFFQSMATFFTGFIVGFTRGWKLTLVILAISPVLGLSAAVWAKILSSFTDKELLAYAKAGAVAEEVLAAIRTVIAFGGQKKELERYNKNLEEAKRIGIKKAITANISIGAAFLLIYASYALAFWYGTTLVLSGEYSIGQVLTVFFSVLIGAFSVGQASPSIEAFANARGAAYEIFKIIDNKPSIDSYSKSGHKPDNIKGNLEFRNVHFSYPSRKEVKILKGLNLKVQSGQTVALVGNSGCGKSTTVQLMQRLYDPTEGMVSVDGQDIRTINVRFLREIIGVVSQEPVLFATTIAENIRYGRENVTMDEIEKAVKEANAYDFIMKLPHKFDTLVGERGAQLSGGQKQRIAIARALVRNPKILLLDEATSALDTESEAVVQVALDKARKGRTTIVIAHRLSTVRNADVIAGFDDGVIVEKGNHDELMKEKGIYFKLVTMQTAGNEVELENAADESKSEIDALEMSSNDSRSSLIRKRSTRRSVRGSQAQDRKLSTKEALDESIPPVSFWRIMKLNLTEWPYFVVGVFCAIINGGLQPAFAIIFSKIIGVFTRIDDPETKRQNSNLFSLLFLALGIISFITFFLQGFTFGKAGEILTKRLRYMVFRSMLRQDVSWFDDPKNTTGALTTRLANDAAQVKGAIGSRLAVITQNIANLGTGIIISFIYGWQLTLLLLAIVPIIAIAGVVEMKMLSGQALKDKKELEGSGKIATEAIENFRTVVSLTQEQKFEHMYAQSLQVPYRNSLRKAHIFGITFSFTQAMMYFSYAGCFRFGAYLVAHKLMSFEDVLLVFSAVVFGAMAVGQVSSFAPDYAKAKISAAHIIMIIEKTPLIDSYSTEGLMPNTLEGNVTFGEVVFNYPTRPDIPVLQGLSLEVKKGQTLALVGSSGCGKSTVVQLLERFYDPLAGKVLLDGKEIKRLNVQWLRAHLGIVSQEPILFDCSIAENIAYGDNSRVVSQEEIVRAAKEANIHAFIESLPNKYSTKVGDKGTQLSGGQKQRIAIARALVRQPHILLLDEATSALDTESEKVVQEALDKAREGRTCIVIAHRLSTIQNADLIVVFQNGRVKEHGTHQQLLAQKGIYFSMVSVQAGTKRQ
The series is described as follows: hoechst 33342 accumulation assay in MDCKII-ABCB1 cells. The class given is cell-based. Conditions: read-out: IC50, inhibition of ABCB1 (hoechst 33342 accumulation). On the procedure: (§1) Cellular accumulation assay with hoechst 33342 and calcein AM was performed as described previously. Briefly, MDCKII-par, MDCKII-ABCB1, MDCKII-ABCG2, and MDCKII-ABCC1 cells were seeded at densities of 5.0 × 10^4, 5.0 × 10^4, 5.5 × 10^4, and 6.0 × 10^4 cells/well, respectively, on a transparent 96-well plate and grown to full confluence for 24 h under standard conditions. The cells were then washed twice with 1 × PBS, after which was added either a dilution of ensartinib in Opti-MEM (1, 5, 10, 25, or 50 µM) or a specific inhibitor to act as a positive control (1 µM LY335979, 1 µM Ko143, or 25 µM MK-571 for ABCB1, ABCG2, or ABCC1, respectively). Cells were pre-incubated for 10 min, then 8 µM hoechst 33342 (a model substrate for ABCB1 and ABCG2) or 2 µM calcein AM (ABCC1 substrate) diluted in Opti-MEM was quickly added to all wells other than those containing blank samples. The intracellular levels of the substrates were then determined at 1 min intervals for 30 min using a microplate reader (Infinite M200 Pro, Tecan, Männedorf, Switzerland). Fluorescence was monitored in bottom mode using excitation/emission wavelengths of 350/465 and 485/535 nm for hoechst 33342 and calcein AM, respectively.

For a further series, the system named is MDCKII-ABCC1 cells. The series is described as follows: MTT proliferation assay, MDCKII-ABCC1. Format: cell-based, canine. Conditions: Canis lupus familiaris, 48 h, read-out: IC50, sensitivity to ensartinib. The protocol:
(§2) MTT proliferation assay was performed as described previously.

A further series concerns the target CYP3A4 (Homo sapiens, UniProt P08684). The series is described as follows: Inhibition of CYP3A4 in intact HepG2-CYP3A4 cells (P450-Glo, luciferin-IPA). Format: cell-based. Conditions: luciferin-IPA 2 µM, 45 min, normalized to viability, read-out: IC50, inhibition of CYP3A4 in enzyme-overexpressing HepG2 cells. Also on record: expressed in transfected cells; host or cells: HepG2-CYP3A4.

In a further series the test system is HL60-ABCC1 cells. Briefly: XTT proliferation assay, HL60-ABCC1. The class given is cell-based. Conditions: Homo sapiens, 48 h, read-out: IC50, sensitivity to ensartinib.
Series [1] can be described thus: MTT proliferation assay, A431-ABCG2. Conditions: human, A431-ABCG2 cells, read-out: IC50, sensitivity to ensartinib. Format: cell-based. On the procedure: as §2
A further series has as its target T2, ABCC1 (Homo sapiens, UniProt P33527).
T2 construct: expressed in transfected cells; host or cells: MDCKII-ABCC1 (from Dr. Alfred Schinkel, The Netherlands Cancer Institute)
Briefly: calcein AM accumulation assay in MDCKII-ABCC1 cells. The settings on record: read-out: IC50, inhibition of ABCC1-mediated calcein AM efflux. The class given is cell-based. On the procedure: as §1

Another series has as its target T3, CYP2B6 (Homo sapiens, UniProt P20813).
T3 construct: purchased Thermo Fisher Scientific; host or cells: insect microsomal fractions
Briefly: Vivid CYP screening kit, recombinant CYP2B6. Format: biochemical. Conditions: recombinant enzyme. On the procedure:
CYP inhibitory assay was performed as described previously. Experiments were performed with commercial Vivid CYP screening kits containing insect microsomal fractions enriched with a specific human CYP isoform, human CYP reductase, and in some cases, human cytochrome b5. The potential inhibitory activity of ensartinib toward CYP1A2, CYP2B6, CYP2C8, CYP2C9, CYP2C19, CYP2D6, CYP3A4, and CYP3A5 (i.e., all CYP isoforms that drug regulatory authorities recommend for testing of inhibition by new molecular entities) was then examined. Experiments were performed using a kinetic mode in black 96-well plates according to the manufacturer´s instructions. Briefly, 5-point serial dilutions of ensartinib or the model inhibitor recommended by the manufacturer in buffer were transferred into the wells, then a master mix consisting of a CYP isoenzyme with an NADPH regeneration system in buffer was added. After a 10 min pre-incubation, the reaction was initiated by adding a mixture of NADP^+ and the appropriate Vivid substrate, after which fluorescence was measured at 1 min intervals for 60 min using an Infinite M200 Pro microplate reader (Tecan, Männedorf, Switzerland). The enzyme concentration and incubation interval used for data evaluation (15 min) placed the systems within the linear regions of the appropriate reaction velocity curves. […]

The next series has as its system MDCKII-parent cells. The series is described as follows: MTT proliferation / drug combination assay, MDCKII-parent. Format: cell-based, canine. The protocol: as §2

One may read the pIC50 as −log10 of the IC50, conventionally taken in molar units. One may read the IC50 as the concentration at which inhibition is half-maximal.

pIC50: −log10 of the molar value. A value given as a limit tells only on which side of the number the result lay.

T3 sequence (P20813 whole entry): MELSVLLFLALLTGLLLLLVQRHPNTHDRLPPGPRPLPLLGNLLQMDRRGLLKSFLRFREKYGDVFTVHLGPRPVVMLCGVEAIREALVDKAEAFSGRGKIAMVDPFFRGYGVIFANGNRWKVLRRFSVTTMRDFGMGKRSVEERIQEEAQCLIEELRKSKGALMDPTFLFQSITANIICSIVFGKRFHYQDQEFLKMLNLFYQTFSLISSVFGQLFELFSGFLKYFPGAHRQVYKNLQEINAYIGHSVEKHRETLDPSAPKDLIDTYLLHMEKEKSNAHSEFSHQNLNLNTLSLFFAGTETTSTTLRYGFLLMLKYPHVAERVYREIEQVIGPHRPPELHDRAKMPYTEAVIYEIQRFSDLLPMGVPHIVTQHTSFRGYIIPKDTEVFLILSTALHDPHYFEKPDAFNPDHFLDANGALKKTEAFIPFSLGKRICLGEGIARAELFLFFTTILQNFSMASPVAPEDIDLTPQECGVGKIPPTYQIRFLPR
Sequence of CYP3A4 (P08684 whole entry): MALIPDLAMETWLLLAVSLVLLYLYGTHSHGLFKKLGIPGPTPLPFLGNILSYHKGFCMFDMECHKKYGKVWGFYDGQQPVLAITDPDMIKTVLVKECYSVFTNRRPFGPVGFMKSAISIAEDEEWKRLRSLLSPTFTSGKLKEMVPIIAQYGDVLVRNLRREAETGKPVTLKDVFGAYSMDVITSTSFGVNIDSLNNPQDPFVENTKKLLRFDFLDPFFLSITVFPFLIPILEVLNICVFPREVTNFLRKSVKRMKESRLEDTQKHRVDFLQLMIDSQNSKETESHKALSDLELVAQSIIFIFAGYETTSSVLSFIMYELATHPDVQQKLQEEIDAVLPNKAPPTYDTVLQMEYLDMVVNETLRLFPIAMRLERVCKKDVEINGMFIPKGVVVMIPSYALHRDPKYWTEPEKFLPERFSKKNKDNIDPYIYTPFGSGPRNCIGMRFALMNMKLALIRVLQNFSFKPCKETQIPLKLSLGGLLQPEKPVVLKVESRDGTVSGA
T2 sequence (P33527 whole entry): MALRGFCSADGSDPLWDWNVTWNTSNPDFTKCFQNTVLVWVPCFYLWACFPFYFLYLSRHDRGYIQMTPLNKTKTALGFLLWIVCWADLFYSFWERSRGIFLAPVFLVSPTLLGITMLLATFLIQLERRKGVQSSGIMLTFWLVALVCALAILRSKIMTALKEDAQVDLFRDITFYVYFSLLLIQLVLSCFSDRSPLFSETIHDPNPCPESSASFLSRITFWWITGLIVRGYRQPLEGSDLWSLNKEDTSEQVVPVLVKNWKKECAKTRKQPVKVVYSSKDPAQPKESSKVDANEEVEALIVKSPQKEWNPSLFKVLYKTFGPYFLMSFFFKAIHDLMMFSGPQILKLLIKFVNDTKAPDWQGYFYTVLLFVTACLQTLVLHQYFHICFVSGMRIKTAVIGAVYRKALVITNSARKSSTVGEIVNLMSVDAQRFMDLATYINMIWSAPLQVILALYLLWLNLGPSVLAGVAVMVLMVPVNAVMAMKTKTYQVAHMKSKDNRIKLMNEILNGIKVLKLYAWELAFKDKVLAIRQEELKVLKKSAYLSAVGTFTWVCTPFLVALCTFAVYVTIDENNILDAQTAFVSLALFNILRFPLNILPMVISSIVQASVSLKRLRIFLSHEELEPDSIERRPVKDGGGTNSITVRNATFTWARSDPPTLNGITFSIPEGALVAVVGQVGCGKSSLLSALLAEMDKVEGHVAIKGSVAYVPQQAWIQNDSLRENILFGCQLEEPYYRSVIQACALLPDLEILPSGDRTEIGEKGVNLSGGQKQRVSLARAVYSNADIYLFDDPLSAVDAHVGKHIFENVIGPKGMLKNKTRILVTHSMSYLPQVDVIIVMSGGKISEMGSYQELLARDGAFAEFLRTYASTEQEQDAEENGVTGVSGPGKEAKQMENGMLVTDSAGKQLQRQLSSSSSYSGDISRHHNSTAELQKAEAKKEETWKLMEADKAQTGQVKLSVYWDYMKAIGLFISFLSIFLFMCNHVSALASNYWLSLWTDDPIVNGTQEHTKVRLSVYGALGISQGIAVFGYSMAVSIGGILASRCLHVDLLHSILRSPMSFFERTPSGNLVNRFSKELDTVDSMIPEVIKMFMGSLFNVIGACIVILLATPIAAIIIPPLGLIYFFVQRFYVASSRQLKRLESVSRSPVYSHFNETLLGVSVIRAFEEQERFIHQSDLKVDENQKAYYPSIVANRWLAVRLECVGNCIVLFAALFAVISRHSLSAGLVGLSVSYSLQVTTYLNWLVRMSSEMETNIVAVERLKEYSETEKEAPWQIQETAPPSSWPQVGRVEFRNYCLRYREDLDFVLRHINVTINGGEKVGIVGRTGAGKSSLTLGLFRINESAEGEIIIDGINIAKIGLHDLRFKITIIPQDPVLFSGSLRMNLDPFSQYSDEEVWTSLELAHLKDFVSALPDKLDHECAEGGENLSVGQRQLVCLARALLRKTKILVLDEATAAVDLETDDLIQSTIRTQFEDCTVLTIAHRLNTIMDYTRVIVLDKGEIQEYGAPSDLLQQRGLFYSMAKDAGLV
Description for CYP3A4: A cell-based method using the P450-Glo CYP3A4 Assay and Screening System with Luciferin-IPA together with the CellTiter-Glo Luminescent Cell Viability Assay was used to measure CYP3A4 inhibition in intact HepG2-CYP3A4 cells [27]. HepG2-CYP3A4 cells were seeded on a transparent 96-well plate at a density of 8.0 × 10^4 cells/well and cultured for 24 h. […] After a 10 min pre-incubation under standard conditions, the CYP3A4 substrate luciferin-IPA was quickly added to all cells other than background samples at a final concentration of 2 µM and the plates were then incubated for 45 min at room temperature. After incubation, the plates were placed on ice and some of the culture media from the cells was transferred to an opaque white 96-well plate and mixed with Luciferin Detection Reagent in a ratio of 1:1 (v/v). The resulting solution was incubated for 20 min at room temperature, then the samples’ luminescence was measured using a microplate reader (Infinite M200 Pro, Tecan, Männedorf, Switzerland) with an integration time of 250 ms. The remaining media was separated from the cells, then 35 µL of pure Opti-MEM was added and the resulting mixture was incubated for 30 min at room temperature. […] Luminescence (which correlates with cell viability) was monitored under conditions identical to those used in the previous step.
Description for HL60-ABCC1 cells: The MTT method is not readily adapted for use with suspension cell cultures, therefore the XTT assay was used to assess the proliferation of HL60 cells. Briefly, HL60-par, HL60-ABCB1, HL60-ABCG2, and HL60-ABCC1 cells were seeded at 2 × 10^4 cells/well in 96-well culture plates. Immediately after seeding, dilutions of the tested drugs or drug combinations were added to the cells. The plates were then incubated under standard conditions (37 °C, 5% CO2) for 48 h, after which XTT solution in PBS (1 mg/mL) and phenazine methosulfate (7.50 µg/mL) were added to the cells and the plates were incubated for another 5 h. Finally, the cells’ absorbance was measured at 450 nm using a microplate reader (Infinite M200, Tecan, Salzburg, Austria). This method was used to assess the effect of ABC transporters on sensitivity to ensartinib and in drug combination assays.
Description for HL60-parent cells: Briefly, HL60-par, HL60-ABCB1, HL60-ABCG2, and HL60-ABCC1 cells were seeded at 2 × 10^4 cells/well in 96-well culture plates. Immediately after seeding, dilutions of the tested drugs or drug combinations were added to the cells. The plates were then incubated under standard conditions (37 °C, 5% CO2) for 48 h, after which XTT solution in PBS (1 mg/mL) and phenazine methosulfate (7.50 µg/mL) were added to the cells and the plates were incubated for another 5 h. Finally, the cells’ absorbance was measured at 450 nm using a microplate reader (Infinite M200, Tecan, Salzburg, Austria). This method was used to assess the effect of ABC transporters on sensitivity to ensartinib and in drug combination assays.
The parent MDCKII and HL60 cells and their ABCB1-, ABCG2-, and ABCC1-overexpressing counterparts were seeded at the densities specified above onto 96-well culture plates and cultured for 24 h. The medium was subsequently replaced with serial dilutions of ensartinib alone or with various concentrations of a model MDR-susceptible cytostatic agent (daunorubicin or mitoxantrone) with or without 10 µM ensartinib. After 48 h incubation, the cells’ viability was determined as described above. In addition to performing IC50-shift analyses, the viability measurements were converted to FA (fraction of cells affected) values and the effects of drug combinations were quantified using the Chou-Talalay combination index (CI) method as implemented in CompuSyn 3.0.1 (ComboSyn Inc., Paramus, NJ, USA). The effects of concomitantly administered drugs were classified as synergistic (CI < 0.9), additive (0.9 < CI < 1.1), or antagonistic (CI > 1.1) based on the computed CI values [57].

For `C[C@@H]1CN(C(=O)c2ccc(NC(=O)c3cc(O[C@H](C)c4c(Cl)ccc(F)c4Cl)c(N)nn3)cc2)C[C@H](C)N1` [ensartinib, Ensartinib], the “combination effect (Chou-Talalay combination index)” value with HL60-parent cells (HL60 parental, 10 µM ensartinib with daunorubicin or mitoxantrone, whole FA range) is reported as “antagonistic or additive”; in the series on MDCKII-parent cells (MDCKII parental, 10 µM ensartinib with daunorubicin or mitoxantrone, whole FA range), “antagonistic or additive”. The negative logarithm of the IC50 (pIC50) with HL60-parent cells (Homo sapiens, HL60-parent, 48 h, XTT, read-out: IC50, sensitivity to ensartinib) is 4.50; on ABCB1, 5.43; in the series with MDCKII-ABCC1 cells, 4.66; at CYP3A4, 4.63; in the series on HL60-ABCC1 cells, 4.56; on ABCC1, less than 4.30. For the same compound, the pIC50 on CYP2B6 (15 min incubation, absolute IC50, read-out: CYP2B6 inhibition IC50) is less than 4.30; in the series on MDCKII-parent cells (Canis lupus familiaris, MDCKII-parent, 48 h, MTT, read-out: IC50, sensitivity to ensartinib) it was 4.66. The IC50 at 48 h in [1] is 2.26 µM. The “inhibitory effect on CYP2B6 (in words)” value on CYP2B6 is reported as “no appreciable inhibitory effect”.
